Values joined by “and” are separate entries in the source; they are usually repeats but may differ in a detail not shown here. Identical values can stand only once.
T1: DC-SIGN ECD oriented surface (Homo sapiens, UniProt Q9NNX6)
T1 construct: made in house
T1 sequence (Q9NNX6 59-404 limits assumed): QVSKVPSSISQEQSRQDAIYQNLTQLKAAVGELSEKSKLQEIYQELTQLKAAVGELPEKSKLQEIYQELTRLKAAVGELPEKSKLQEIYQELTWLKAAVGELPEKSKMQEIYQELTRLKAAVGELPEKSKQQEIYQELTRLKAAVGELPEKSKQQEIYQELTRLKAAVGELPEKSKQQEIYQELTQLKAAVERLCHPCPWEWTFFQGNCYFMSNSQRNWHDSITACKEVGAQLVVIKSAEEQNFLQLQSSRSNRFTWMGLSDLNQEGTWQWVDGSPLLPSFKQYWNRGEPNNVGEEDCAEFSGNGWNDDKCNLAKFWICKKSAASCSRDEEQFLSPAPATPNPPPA

T2: DC-SIGN ECD tetramer (Homo sapiens, UniProt Q9NNX6)
T2 sequence (Q9NNX6 59-404 limits assumed): T1 sequence (Q9NNX6 59-404 limits assumed)

T3: DC-SIGN extracellular domain (human), Q9NNX6
T3 chain: T1 sequence (Q9NNX6 59-404 limits assumed)

B1: DC-SIGN extracellular domain, Q9NNX6 59-404 (domain or fragment)
chain: T1 sequence (Q9NNX6 59-404 limits assumed)

Columns and labels:
[1] = target: T1, DC-SIGN ECD oriented surface; assay type: binding; conditions: for Kd: SPR direct interaction on DC-SIGN ECD oriented surface, 25 mM Tris pH 8, 150 mM NaCl, 4 mM CaCl2, 4% DMSO, read-out: KD app; for ß factor (valency-corrected enhancement factor): from SPR KDapp, compound 3.1 as monovalent reference
DC-SIGN ECD = system: DC-SIGN ECD; parameters: method as in PMID 25648900; conditions: SPR inhibition study (competition experiment); cited from earlier work
DC-SIGN ECD tetramer = target: T2, DC-SIGN ECD tetramer; experiment: Isothermal titration calorimetry (ITC); assay type: binding; conditions: 25°C
Protocol: Thermodynamic parameters of multivalent binding as measured by isothermal titration calorimetry (ITC) were analyzed for compounds 3.2 and 3.6. Usually, ITC should provide, among other parameters, a “real” KD value; however, here we prefer to refer to a KDapp. Indeed, in these ITC experiments, we are not evaluating an affinity (a 1:1 unitary interaction, defined by KD) but rather an avidity phenomenon resulting from cumulative unitary bonds (each of whose individual contributions to the overall avidity cannot be deconvoluted). In addition, this avidity results from several multivalent modalities, a population of binding modes. Thus, the use of KDapp, instead of KD, emphasizes that the values determined here are the result of a complex phenomenon. The ITC binding analysis (Figure 3 and Table 2) is fully in agreement with the other biophysical techniques (see Table 2 for SPR and Figure 2C for FP of 3.6) with KDapp values equal to 58 ± 1 nM and 1.1 ± 0.2 μM for compounds 3.6 and 3.2, respectively. […] Increasing the local concentration close to the site is a major source of avidity generation. The ΔH difference is offset by a more unfavorable entropy for 3.6, which probably originates from the loss of degrees of freedom of construct extremities, six versus two, upon binding. Hydrophobic effect may also contribute, since the hydrophobic rod is shielded better from the solvent by the six units of ligand 1 in 3.6([35]) and exposing the hydrophobic parts and ordering the solvent around them is entropically costly. Combining the enthalpy and entropy effects, the ΔG for the hexavalent ligand improves by 10 kJ/mol. It is interesting to note that a stoichiometry of 1 for the complex with 3.6 is observed, supporting again the chelation mode. On the contrary, a stoichiometry n = 1.5 is observed for 3.2, with a KDapp in the μM range, which is compatible with a mixed chelation and clustering binding mode. […]
This graph is supplementary evidence of the multivalent binding, here chelate binding mode for 3.2, that occur over a DC-SIGN oriented surface.
3. Isothermal titration calorimetric analysis
ITC experiments were performed at 25°C using TA Instrument Nano Isothermal Titration Calorimeter Low volume (Nano ITC LV). Compound 3.6, 3.2 and DC-SIGN ECD were prepared in 25 mM Tris pH 8; 150 mM NaCl, 4 mM CaCl2, 4 % DMSO. Compounds (30 µM of 3.6 or 375 µM of 3.2) were stepwise injected (1.03 µL) to 190 µL of DC-SIGN ECD tetramer (respectively, 30 µM or 48.75 µM) in the cell. The blank titrations (compounds to buffer) were done for subtraction of dilution heat from the integrated data. […]
The free energy changes (∆G) and entropy (∆S) were calculated using equation (2): […]

[2] = target: T3, DC-SIGN extracellular domain (human), …; experiment: AUC; sedimentation velocity; DC-SIGN tetramer 4 uM alone (same peak with 5 nM to 500 nM compound 3.6); monomers to tetramer; conditions: remark: other sources report otherwise

Molecule	Kd [1]	ß factor (valency-corrected enhancement factor) [1]	IC50 (DC-SIGN ECD) [nM]	further results
O=C(NCc1ccc(CO)cc1)C1CC(OCCn2cc(COCC(COCCOCCn3cc(-c4cc(OCCOCCO)c(-c5cn(CCOCCOCC(COCc6cn(CCOC7CC(C(=O)NCc8ccc(CO)cc8)C(C(=O)NCc8ccc(CO)cc8)CC7OC7OC(CO)C(O)C(O)C7O)nn6)(COCc6cn(CCOC7CC(C(=O)NCc8ccc(CO)cc8)C(C(=O)NCc8ccc(CO)cc8)CC7OC7OC(CO)C(O)C(O)C7O)nn6)COCc6cn(CCOC7CC(C(=O)NCc8ccc(CO)cc8)C(C(=O)NCc8ccc(CO)cc8)CC7OC7OC(CO)C(O)C(O)C7O)nn6)nn5)cc4OCCOCCO)nn3)(COCc3cn(CCOC4CC(C(=O)NCc5ccc(CO)cc5)C(C(=O)NCc5ccc(CO)cc5)CC4OC4OC(CO)C(O)C(O)C4O)nn3)COCc3cn(CCOC4CC(C(=O)NCc5ccc(CO)cc5)C(C(=O)NCc5ccc(CO)cc5)CC4OC4OC(CO)C(O)C(O)C4O)nn3)nn2)C(OC2OC(CO)C(O)C(O)C2O)CC1C(=O)NCc1ccc(CO)cc1 (stereo not shown) [Compound 1.6]	170 nM and 172 nM	38		
[N-]=[N+]=NCCOC1CC(C(=O)NCc2ccc(CO)cc2)C(C(=O)NCc2ccc(CO)cc2)CC1OC1OC(CO)C(O)C(O)C1O (stereo not shown) [Compound 1]			270000	
O=C(NCc1ccc(CO)cc1)C1CC(OCCn2cc(COCC(COCCOCCn3cc(-c4cc(OCCOCCO)c(C#Cc5cc(OCCOCCO)c(-c6cn(CCOCCOCC(COCc7cn(CCOC8CC(C(=O)NCc9ccc(CO)cc9)C(C(=O)NCc9ccc(CO)cc9)CC8OC8OC(CO)C(O)C(O)C8O)nn7)(COCc7cn(CCOC8CC(C(=O)NCc9ccc(CO)cc9)C(C(=O)NCc9ccc(CO)cc9)CC8OC8OC(CO)C(O)C(O)C8O)nn7)COCc7cn(CCOC8CC(C(=O)NCc9ccc(CO)cc9)C(C(=O)NCc9ccc(CO)cc9)CC8OC8OC(CO)C(O)C(O)C8O)nn7)nn6)cc5OCCOCCO)cc4OCCOCCO)nn3)(COCc3cn(CCOC4CC(C(=O)NCc5ccc(CO)cc5)C(C(=O)NCc5ccc(CO)cc5)CC4OC4OC(CO)C(O)C(O)C4O)nn3)COCc3cn(CCOC4CC(C(=O)NCc5ccc(CO)cc5)C(C(=O)NCc5ccc(CO)cc5)CC4OC4OC(CO)C(O)C(O)C4O)nn3)nn2)C(OC2OC(CO)C(O)C(O)C2O)CC1C(=O)NCc1ccc(CO)cc1 (stereo not shown) [Compound 2.6]	140 ± 8 nM	47		
O=C(NCc1ccc(CO)cc1)C1CC(OCCn2cc(-c3cc(OCCOCCO)c(C#Cc4cc(OCCOCCO)c(C#Cc5cc(OCCOCCO)c(-c6cn(CCOC7CC(C(=O)NCc8ccc(CO)cc8)C(C(=O)NCc8ccc(CO)cc8)CC7OC7OC(CO)C(O)C(O)C7O)nn6)cc5OCCOCCO)cc4OCCOCCO)cc3OCCOCCO)nn2)C(OC2OC(CO)C(O)C(O)C2O)CC1C(=O)NCc1ccc(CO)cc1 (stereo not shown) [Compound 3.2]	2400 nM and 2440 nM	8	8000	n (stoichiometry) (DC-SIGN ECD tetramer): 1.5 and 1.56 ± 0.04; ΔH (DC-SIGN ECD tetramer): –85.27 ± 4.48 kJ/mol; TΔS (DC-SIGN ECD tetramer; calculated): –54.4 kJ/mol; Kd (DC-SIGN ECD tetramer; one-site binding model, read-out: KDapp): 1100 ± 200 nM
B1				stoichiometry N [2]: 4

Source: article PMC10141607, “Powerful Avidity with a Limited Valency for Virus-Attachment Blockers on DC-SIGN: Combining Chelation and Statistical Rebinding with Structural Plasticity of the Receptor” (ACS Central Science, 2023)
